Data taken from patent US20250032568A1, “TRADITIONAL CHINESE MEDICINE COMPOSITION AND TRADITIONAL CHINESE MEDICINE DECOCTION FOR TREATING GASTROESOPHAGEAL REFLUX DISEASE (GERD), AND PREPARATION METHOD AND USE THEREOF” (AFFILIATED HOSPITAL OF JIANGXI UNIVERSITY OF TRADITIONAL …, priority 2023, published 2025).

Tests used:
Format in all cases: in vivo, human
[1] = tested on: gastroesophageal reflux disease (GERD); assay: TCM symptom scoring in GERD patients; settings: 40 per group, mean ± S
Procedure: (§1) In this example, 80 patients who were diagnosed with GERD in the inpatient and outpatient departments of the Gastroenterology Department of the Affiliated Hospital of Jiangxi University of Traditional Chinese Medicine from 2022.6.1 to 2023.2-28 and met this standard were collected, with a total effective rate of 87.5%.
(§2) Treatment group: 100 mL Bid of the traditional Chinese medicine decoction prepared in Example 1
(§3) Control group: 20 mg Bid of an esomeprazole magnesium soluble capsule
3) TCM symptom scoring: referring to the “Guiding Principles for Clinical Research of New Traditional Chinese Medicines” for scoring. The scoring criteria are as follows: primary symptoms including acid reflux, heartburn, belching and reflux; the secondary symptoms including retrosternal burning pain, throat discomfort, bitter mouth, nausea. There are 4 levels according to none, mild, moderate, and severe. The primary symptoms are recorded as 0, 2, 4 and 6 points, respectively, while the secondary symptoms are recorded as 0, 1, 2 and 3 points, respectively.

[2] = tested on: gastroesophageal reflux disease (GERD); assay: Reflux Disease Questionnaire (RDQ) score in GERD patients; settings: 40 per group, mean ± S
Procedure: as §1, §2, §3
1) Reflux Disease Questionnaire (RDQ)
RDQ is currently the most recognized and widely used diagnostic scale for GERD in the world.
The maximum score for frequency and symptom severity is 40 points, and the GERD is diagnosed when the RDQ score is >12 points.
RDQ scoring criteria: a. Scoring based on the frequency of symptom onset: based on the weekly frequency of four symptoms: heartburn, regurgitation, non-cardiac chest pain, and acid reflux, “never”, “1 week <1 d”, “1 d per 1 week”, “2-3 d per 1 week”, “4-5 d per 1 week”, and “almost every day” were scored as 0, 1, 2, 3, 4, and 5 points, respectively, with a maximum of 20 points. b. […]

[3] = tested on: gastroesophageal reflux disease (GERD); assay: Clinical efficacy (total effective rate) in GERD patients; settings: 40 per group; for Efficacy (total effective rate): (Recovery+Significant effect+Effective)/total number of cases
Procedure: as §1, §2, §3

[4] = decoction 100 mL Bid or esomeprazole capsule 20 mg Bid, after the test

SMILES: COc1ccc2[n-]c([S+]([O-])Cc3ncc(C)c(OC)c3C)nc2c1.COc1ccc2[n-]c([S+]([O-])Cc3ncc(C)c(OC)c3C)nc2c1.[Mg+2] (stereo not drawn) [esomeprazole magnesium soluble capsule, esomeprazole magnesium]
- TCM symptom score after treatment ([1]; after treatment): 8.43 ± 4.29^[4]
- TCM symptom score before treatment ([1]; baseline): 17.85 ± 4.07^[2]
- RDQ score after treatment [2]: 13.73 ± 4.59^[4]
- Efficacy (total effective rate) ([3]; listed as Control): 82.50%
- Efficacy (total effective rate) ([3]; listed as control group): 82.5%
- Effective (number of patients) [3, 4]: 23
- Invalid (number of patients) [3, 4]: 7
- Recovery (number of patients) [3, 4]: 4
- Significant effect (number of patients) [3, 4]: 6
